The subject of series [1] is Mycobacterium avium. The experiment in a line: In vitro antibacterial activity of compound against Mycobacterium avium MAC ISS-486 (wild type strain) isolated from infected patients. Type of series: functional.
The test system of series [2] is Mycobacterium avium. The experiment in a line: In vitro antibacterial activity of compound against Mycobacterium avium MAC ANI (wild type strain) isolated from infected patients. Type of series: functional.
Series [3] concerns Mycobacterium avium. The experiment in a line: In vitro antibacterial activity of compound against Mycobacterium avium MAC AN3 (wild type strain) isolated from infected patients. It is filed as functional.
Series [4] deals with Mycobacterium avium. The experiment in a line: In vitro antibacterial activity of compound against Mycobacterium avium MAC ATCC 15769. Type of series: functional.
Series [5] deals with Mycobacterium avium. The experiment in a line: In vitro antibacterial activity of compound against Mycobacterium avium MAC AN2 wild type strain) isolated from infected patients. Type of series: functional.
Series [6] deals with Mycobacterium tuberculosis. The experiment in a line: In vitro antibacterial activity against Mycobacterium tuberculosis MT-2 (wild type strain) isolated from infected patients. Type of series: functional.
Series [7] has as its system Mycobacterium tuberculosis. The experiment in a line: In vitro antibacterial activity against Mycobacterium tuberculosis MT ATCC H37Rv strain. Type of series: functional.
Series [8] concerns Mycobacterium tuberculosis. The experiment in a line: In vitro antibacterial activity against Mycobacterium tuberculosis MT-1 (wild type strain) isolated from infected patients. Type of series: functional.
Series [9] in a line: Mean residence time (Pharmacokinetic property) after i.v. administration in rats. The conditions noted are these: rat, in vivo, iv. It is filed as ADME, organism-based.
Series [10] is described as follows: Clearance rate after i.v. administration in rats. It is filed as ADME, organism-based. The conditions noted are these: rat, in vivo, iv.
The nature of series [11]: Toxicity after intraperitoneal administration in rats and mice. The conditions noted are these: rodentia, in vivo, ip.
The nature of series [12]: Volume of steady state distribution after i.v. administration in rats. Type of series: ADME, organism-based. The conditions noted are these: rat, in vivo, iv; read-out: Vss.
Series [13] in a line: Elimination half life after i.v. administration of compound in rats. Type of series: ADME, organism-based. The note with it: rat, in vivo, iv.
A short description of series [14]: Area under the curve (Concentration) was determined for the compound as AUC with limits 0-8 after i.v. administration in rats. It is filed as ADME, organism-based. The arrangement: route intravenous. The note with it: rat, in vivo, iv.

Each structure is given as a SMILES string. In brackets after ≈: the same amount, converted by molar mass.

The term MIC denotes the least concentration at which growth counts as inhibited. Read a low MIC as greater potency. On to `Cl.S/C(=N\CCCN1CCOCC1)c1cccnc1S`, for which the MIC against Mycobacterium avium [1] is greater than 16 µg/mL; against Mycobacterium avium [2] it was greater than 16 µg/mL; in the series with Mycobacterium avium [3] it was greater than 16 µg/mL; against Mycobacterium avium [4], greater than 16 µg/mL; in the series on Mycobacterium avium [5] it was greater than 16 µg/mL; in [6], 8 µg/mL. Also, the MIC in series [7] was 4 µg/mL; in series [8] it was 8 µg/mL.

As usually defined, the MRT is a mean duration of stay, worked out from the concentration-time curve. By clearance is commonly meant the volume of plasma or blood freed of the substance per unit of time. As usually defined, the LD50 is the dose expected to kill half of the subjects tested. The low end stands for a more toxic substance, the high end for a less toxic substance. By half-life is commonly meant the time in which the quantity being followed falls by half. A low value points to rapid decline. For orientation: AUC means the area under the concentration-time curve, a measure of exposure. In series [9], `CN(C)CC/N=C(\S)c1cccnc1S.Cl` displayed an MRT of 2.83 h. Further, the MIC (against Mycobacterium avium [1]; against Mycobacterium avium [2]; against Mycobacterium avium [3]; in the series with Mycobacterium avium [4]; in the series on Mycobacterium avium [5]; in [6]) was greater than 16 µg/mL in each case. Further, the MIC worked out at 8 µg/mL in series [7] and 16 µg/mL in [8]. Besides, the clearance in series [10] was 60.8 mL/min/kg. The compound also came in with an LD50 in series [11] greater than 2000 mg/kg. Besides, in series [12], the Vd is 11.2 L/kg. Also, the half-life in series [13] is 2.72 h. For the same compound, the AUC in [14] came out at 6910 ng·h/mL.

With `CN1CCN(CCC/N=C(\S)c2cccnc2S)CC1.Cl`, the MIC (with Mycobacterium avium [1]; in the series on Mycobacterium avium [2]; with Mycobacterium avium [3]; with Mycobacterium avium [4]; in the series on Mycobacterium avium [5]; in series [6]) was greater than 16 µg/mL each time. Further, the MIC in series [7] is 8 µg/mL; in series [8], 16 µg/mL.

Turning to `Cl.S/C(=N\CCN1CCCC1)c1cccnc1S`, the MIC (against Mycobacterium avium [1]; against Mycobacterium avium [2]; with Mycobacterium avium [3]; in the series on Mycobacterium avium [4]; against Mycobacterium avium [5]; in [6]) was greater than 16 µg/mL in each case. Besides, the MIC in [7] worked out at 8 µg/mL; in series [8], 16 µg/mL.

Take `CCCCCCC/N=C(\S)c1cccnc1S`: the MIC in the series with Mycobacterium avium [1] was 4 µg/mL (≈ 14.9 µM); in the series on Mycobacterium avium [2] it was 4 µg/mL (≈ 14.9 µM); in the series on Mycobacterium avium [3], 4 µg/mL (≈ 14.9 µM); against Mycobacterium avium [4], 2 µg/mL (≈ 7.45 µM); against Mycobacterium avium [5], 4 µg/mL (≈ 14.9 µM); in series [6], 2 µg/mL (≈ 7.45 µM). Also, the MIC in series [7] was found to be 0.5 µg/mL (≈ 1.86 µM); in series [8], 2 µg/mL (≈ 7.45 µM). Moreover, the clearance in series [10] was 50 mL/min/kg. The Vd in [12] was 1.28 L/kg. For the same compound, the AUC in series [14] worked out at 8250 ng·h/mL.

In turn, `Cl.S/C(=N\CCc1ccccn1)c1cccnc1S` showed an MRT in [9] of 1.77 h. The minimal inhibitory concentration (MIC) against Mycobacterium avium [1] was 8 µg/mL; against Mycobacterium avium [2] it was 8 µg/mL; with Mycobacterium avium [3] it was 8 µg/mL; in the series with Mycobacterium avium [4] it was 4 µg/mL; with Mycobacterium avium [5] it was 8 µg/mL; in series [6], 1 µg/mL. Also, the MIC in [7] and in series [8] was 4 µg/mL throughout. Moreover, the clearance in series [10] is 144 mL/min/kg. Also, the LD50 in series [11] was greater than 2000 mg/kg. The Vd in [12] was 14.5 L/kg. Besides, the half-life in series [13] is 2.22 h. The AUC in series [14] was 4700 ng·h/mL.

Take `CC/N=C(\S)c1cccnc1S`: the MIC came to 4 µg/mL (≈ 20.2 µM) with Mycobacterium avium [1]; 4 µg/mL (≈ 20.2 µM) against Mycobacterium avium [2]; 8 µg/mL (≈ 40.3 µM) against Mycobacterium avium [3]; 4 µg/mL (≈ 20.2 µM) in the series with Mycobacterium avium [4]; 8 µg/mL (≈ 40.3 µM) against Mycobacterium avium [5]; 1 µg/mL (≈ 5.04 µM) in series [6]. The MIC was 0.5 µg/mL (≈ 2.52 µM) in [7] and 1 µg/mL (≈ 5.04 µM) in series [8]. In series [10], this compound showed a clearance of 20 mL/min/kg. Besides, the Vd in [12] stood at 0.93 L/kg. In addition, in series [14], the AUC was 15800 ng·h/mL.

`OCC/N=C(\S)c1cccnc1S`: the MRT in series [9] amounted to 0.72 h. Also, the MIC in the series with Mycobacterium avium [1] came out at 8 µg/mL (≈ 37.3 µM); against Mycobacterium avium [2], 4 µg/mL (≈ 18.7 µM); in the series on Mycobacterium avium [3] it was 4 µg/mL (≈ 18.7 µM); against Mycobacterium avium [4], 8 µg/mL (≈ 37.3 µM); in the series on Mycobacterium avium [5], 8 µg/mL (≈ 37.3 µM); in [6], 8 µg/mL (≈ 37.3 µM). Besides, the values for the MIC in series [7] and in series [8] were 2 µg/mL (≈ 9.33 µM) and 4 µg/mL (≈ 18.7 µM), respectively. Also, in series [10], the clearance was 93.2 mL/min/kg. This compound came in with an LD50 in [11] greater than 2000 mg/kg. Moreover, the Vd in series [12] was determined as 4.17 L/kg. This compound also had a half-life in series [13] of 0.67 h. In series [14], this compound showed an AUC of 3730 ng·h/mL.

For `CC[C@@H](CO)NCCN[C@@H](CC)CO` [ETHAMBUTOL], the MIC is 2 µg/mL (≈ 9.79 µM) with Mycobacterium avium [1]; 1 µg/mL (≈ 4.89 µM) in the series on Mycobacterium avium [2]; 2 µg/mL (≈ 9.79 µM) against Mycobacterium avium [3]; 0.5 µg/mL (≈ 2.45 µM) against Mycobacterium avium [5]; no more than 2 µg/mL in [6]; no more than 2 µg/mL in series [7]. In [8], this compound had an MIC of no more than 2 µg/mL.

The values above are taken from ChEMBL document CHEMBL1135319, “New N-alkyl-1,2-dihydro-2-thioxo-3-pyridinecarbothioamides as antituberculous agents with improved pharmacokinetics” (Bioorg Med Chem Lett, 2002).
